This test concerns the target benzodiazepine modulatory unit of the GABAA receptor complex (3H-flunitrazepam binding, cerebral cortex membranes). In words: In vitro inhibition of 3H-flunitrazepam (3H-FNM) binding. Also on record: species or system rat. As to conditions: inhibition of specific 3H-FNM (1 nM) binding, cerebral cortex membranes from male Wistar rats, 40 min at 2° C. As to the method:
In Vitro Inhibition of ^3H-Flunitrazepam (^3H-FNM) Binding
The GABA recognition site and the benzodiazepine modulatory unit can selectively be labelled with ^3H-flunitrazepam.
Preparations are performed at 0-4° C. unless otherwise indicated. Cerebral cortex from male Wistar rats (150-200 g) is homogenised for 5-10 sec in 20 ml Tris-HCl (30 mM, pH 7.4) using an Ultra-Turrax homogeniser. The suspension is centrifuged at 27,000×g for 15 min and the pellet is washed three times with buffer (centrifuged at 27,000×g for 10 min). The washed pellet is homogenized in 20 ml of buffer and incubated on a water bath (37° C.) for 30 min to remove endogenous GABA and then centrifuged for 10 min at 27,000×g. The pellet is then homogenized in buffer and centrifuged for 10 min at 27,000×g. The final pellet is resuspended in 30 ml buffer and the preparation is frozen and stored at −20° C.
The membrane preparation is thawed and centrifuged at 2° C. for 10 min at 27,000×g. The pellet is washed twice with 20 ml 50 mM Tris-citrate, pH 7.1 using an Ultra-Turrax homogeniser and centrifuged for 10 min at 27,000×g. The final pellet is resuspended in 50 mM Tris-citrate, pH 7.1 (500 ml buffer per g of original tissue), and then used for binding assays. Aliquots of 0.5 ml tissue are added to 25 μl of test solution and 25 μl of ^3H-FNM (1 nM, final concentration), mixed and incubated for 40 min at 2° C. Non-specific binding is determined using Clonazepam (1 μM, final concentration). After incubation the samples are added 5 ml of ice-cold buffer and poured directly onto Whatman GF/C glass fibre filters under suction and immediately washed with 5 ml ice-cold buffer. The amount of radioactivity on the filters is determined by conventional liquid scintillation counting. Specific binding is total binding minus non-specific binding.
The test value will be given as IC50 (the concentration (μM) of the test substance which inhibits the specific binding of ^3H-FNM by 50%).
Co is specific binding in control assays, and
Cx is the specific binding in the test assay.
(The calculations assume normal mass-action kinetics).
Usually IC50 stands for the concentration that gives 50% inhibition. Take `COc1ncccc1-c1cc(-n2cnc3cc(C(C)(C)O)ccc32)ccn1` [Compound 7a, 2-[1-(2′-Methoxy-[2,3′]bipyridinyl-4-yl)-1H-benzoimidazol-5-yl]-propan-2-ol]: the IC50 worked out at 1.2 nM.
In turn, `CC(C)(O)c1ccc2c(c1)ncn2-c1ccnc(-c2cccnc2Cl)c1` [Compound 7b, 2-[1-(2′-Chloro-[2,3′]bipyridinyl-4-yl)-1H-benzoimidazol-5-yl]-propan-2-ol] displayed an IC50 of 38 nM.
As for `CC(C)(O)c1ccc2c(c1)ncn2-c1ccnc(-c2ccncc2F)c1` [Compound 7c, 2-[1-(3′-Fluoro-[2,4′]bipyridinyl-4-yl)-1H-benzoimidazol-5-yl]-propan-2-ol], the IC50 worked out at 7.5 nM.
Regarding `CC(C)(O)c1ccc2c(c1)ncn2-c1ccnc(-c2ccncc2C#N)c1` [Compound 7d, 4-[5-(1-Hydroxy-1-methyl-ethyl)-benzoimidazol-1-yl]-[2,4′]bipyridinyl-3′-carbonitrile], the half-inhibitory concentration (IC50) came out at 26 nM.

The values above are taken from US8492408B2, “Benzimidazole derivatives and their use for modulating the GABAA receptor complex” (Aniona APS, priority 2008, dated 2013).
